Reference: patent publication US9556147B2 (Hoffmann-La Roche Inc., priority 2013, dated 2017)

Test system: B cell receptor-mediated activation of B cells in human whole blood (CD69 expression)
Test: cells
Conditions: 20 h, read-out: HWB IC50
Method: After the incubation the plates were read on a BMG Pherastar Fluorescent plate reader (or equivalent) and used to measure the emission energy from the europium donor fluorophore (620 nm emission) and the FRET (665 nm emission). The negative control well values were averaged to obtain the mean minimum. The positive “no inhibitor” control wells were averaged to obtain the mean maximum. […] The mean IC50 and standard deviation will be derived from duplicate curves (singlet inhibition curves from two independent dilutions) using Microsoft Excel. Inhibition of B Cell Activation in Whole Blood Measured by CD69 Expression
Human whole blood (HWB) is obtained from healthy volunteers, with the following restrictions: 24 hr drug-free, non-smokers. Blood is collected by venipuncture into Vacutainer tubes anticoagulated with sodium heparin. Test compounds are diluted to ten times the desired starting drug concentration in PBS (20×), followed by three-fold serial dilutions in 10% DMSO in PBS to produce a nine point dose-response curve. […] HWB (100 μl) is added to each well, and after mixing the plates are incubated at 37 C, 5% CO2, 100% humidity for 30 minutes. […]
Using appropriate excitation and emission wavelengths for the fluorophores used, data are acquired and percent positive cell values are obtained using Cell Quest Software. Results are initially analyzed by FACS analysis software (Flow Jo).

In the case of CN1CCC[C@H]1c1ccc(Nc2cc3c(n(C)c2=O)CC(O)Cc2c-3cccc2-n2ncc3cc(C(C)(C)C)cc(F)c3c2=O)nc1 (some centres unmarked) [Compound 2], the IC50 is reported as 49 nM.

Cn1c2c(cc(Nc3ccc(C(=O)N4CCOCC4)cn3)c1=O)-c1cccc(-n3ncc4cccc(F)c4c3=O)c1C[C@H](O)C2 [Compound 6] was tested, and the IC50 was 4380 nM.
